In the supplement of paper PMC10307832:

Legend:
Assay in all cases: relative viability (nuclei count vs DMSO), 5 days (fraction); higher = more cells survive
Avagacestat + Navitoclax = compound: NC(=O)[C@@H](CCC(F)(F)F)N(Cc1ccc(-c2ncon2)cc1F)S(=O)(=O)c1ccc(Cl)cc1 [Avagacestat] + CC1(C)CCC(c2ccc(Cl)cc2)=C(CN2CCN(c3ccc(C(=O)NS(=O)(=O)c4ccc(N[C@H](CCN5CCOCC5)CSc5ccccc5)c(S(=O)(=O)C(F)(F)F)c4)cc3)CC2)C1 [Navitoclax] (partner 0.5 µM)
Outline: (§1)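 Relative viability was taken as the ratio of nuclei in treated wells to nuclei in vehicle wells. Lung cancer cell lines in 1536-well plates received compounds by pin tool one day after seeding, either one drug alone or a fixed anchor-drug dose plus five library-drug doses (not always all listed) in √10 steps. Nuclei were counted on 4× images after 5 days of treatment, and values are medians of duplicate plates.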

Avagacestat + Tozasertib = compound: NC(=O)[C@@H](CCC(F)(F)F)N(Cc1ccc(-c2ncon2)cc1F)S(=O)(=O)c1ccc(Cl)cc1 [Avagacestat] + Cc1cc(Nc2cc(N3CCN(C)CC3)nc(Sc3ccc(NC(=O)C4CC4)cc3)n2)n[nH]1 [Tozasertib] (partner 0.1 µM)
Outline: as §1

Avagacestat + Vorinostat = compound: NC(=O)[C@@H](CCC(F)(F)F)N(Cc1ccc(-c2ncon2)cc1F)S(=O)(=O)c1ccc(Cl)cc1 [Avagacestat] + O=C(CCCCCCC(=O)Nc1ccccc1)NO [Vorinostat] (partner 1 µM)
Outline: as §1

Avagacestat + Crizotinib = compound: NC(=O)[C@@H](CCC(F)(F)F)N(Cc1ccc(-c2ncon2)cc1F)S(=O)(=O)c1ccc(Cl)cc1 [Avagacestat] + C[C@@H](Oc1cc(-c2cnn(C3CCNCC3)c2)cnc1N)c1c(Cl)ccc(F)c1Cl [Crizotinib] (partner 1 µM)
Outline: as §1

Cell Line | relative viability (Avagacestat + Navitoclax; first compound 0.08 µM) | relative viability (Avagacestat + Navitoclax; first compound 0.253 µM) | relative viability (Avagacestat + Navitoclax; first compound 0.8 µM) | relative viability (Avagacestat + Navitoclax; first compound 2.53 µM) | relative viability (Avagacestat + Navitoclax; first compound 8 µM) | relative viability (Avagacestat + Tozasertib; first compound 0.08 µM) | relative viability (Avagacestat + Tozasertib; first compound 0.253 µM) | relative viability (Avagacestat + Tozasertib; first compound 0.8 µM) | relative viability (Avagacestat + Tozasertib; first compound 2.53 µM) | relative viability (Avagacestat + Tozasertib; first compound 8 µM) | relative viability (Avagacestat + Vorinostat; first compound 0.08 µM) | relative viability (Avagacestat + Vorinostat; first compound 0.253 µM) | relative viability (Avagacestat + Vorinostat; first compound 0.8 µM) | relative viability (Avagacestat + Vorinostat; first compound 2.53 µM) | relative viability (Avagacestat + Vorinostat; first compound 8 µM) | relative viability (Avagacestat + Crizotinib; first compound 0.08 µM) | relative viability (Avagacestat + Crizotinib; first compound 0.253 µM) | relative viability (Avagacestat + Crizotinib; first compound 0.8 µM) | relative viability (Avagacestat + Crizotinib; first compound 2.53 µM) | relative viability (Avagacestat + Crizotinib; first compound 8 µM)
NCI-H441 | 0.504 | 0.491 | 1.01 | 0.49 | 0.668 | 0.968 | 0.715 | 0.529 | 0.683 | 0.483 | 0.991 | 0.932 | 0.899 | 0.761 | 0.595 | 0.977 | 0.816 | 0.71 | 1.19 | 0.629
NCI-H2126 | 1.02 | 0.899 | 0.875 | 0.798 | 0.832 | 0.81 | 0.859 | 0.906 | 0.334 | 0.778 | 0.792 | 0.715 | 0.842 | 0.711 | 0.753 | 1.07 | 1.14 | 0.977 | 1.04 | 1.04
LXF-289 | 0.964 | 0.996 | 1 | 1 | 0.885 | 0.19 | 0.119 | 0.211 | 0.131 | 0.212 | 0.954 | 0.884 | 0.791 | 0.921 | 0.86 | 0.852 | 0.941 | 0.795 | 0.816 | 0.774
HCC-44 | 1.14 | 1.13 | 0.948 | 0.76 | 0.874 | 1.03 | 1.27 | 0.976 | 0.146 | 0.755 | 1.09 | 1.14 | 1.19 | 1.07 | 1.21 | 0.92 | 0.905 | 0.846 | 0.838 | 0.699
EKVX | 1.12 | 1.15 | 1.04 | 0.792 | 0.853 | 0.401 | 0.373 | 0.382 | 0.34 | 0.287 | 0.826 | 0.783 | 0.904 | 0.75 | 0.68 | 1.02 | 1.35 | 1.06 | 0.899 | 0.857
HOP-62 | 1.26 | 1.12 | 0.962 | 0.978 | 0.895 | 0.357 | 0.353 | 0.373 | 0.363 | 0.335 | 0.822 | 0.667 | 0.65 | 0.588 | 0.564 | 0.936 | 1.08 | 0.995 | 1.05 | 1.03
HCC-827 | 1.12 | 1.02 | 1.11 | 1.07 | 1.02 | 0.452 | 0.434 | 0.506 | 0.381 | 0.462 | 0.75 | 0.849 | 0.855 | 0.946 | 0.832 | 0.868 | 0.85 | 0.992 | 1.03 | 0.999
NCI-H2087 | 1.34 | 1.19 | 1.02 | 1.16 | 0.931 | 0.218 | 0.286 | 0.277 | 0.248 | 0.237 | 1.14 | 0.914 | 1.07 | 0.771 | 0.68 | 1.18 | 1.01 | 0.906 | 1.07 | 0.843
RERF-LC-KJ | 1.11 | 0.878 | 0.874 | 0.982 | 1.1 | 0.5 | 0.471 | 0.466 | 0.418 | 0.379 | 0.724 | 0.64 | 0.801 | 0.685 | 0.601 | 0.799 | 0.839 | 0.924 | 0.792 | 0.761
A-427 | 0.994 | 0.99 | 1.03 | 0.967 | 0.968 | 0.203 | 0.185 | 0.206 | 0.198 | 0.198 | 0.958 | 0.945 | 1.03 | 0.946 | 0.952 | 0.986 | 1.19 | 0.842 | 0.75 | 0.837
H3255 | 0.504 | 0.59 | 0.71 | 0.431 | 0.498 | 0.529 | 0.55 | 0.825 | 0.556 | 0.693 | 0.825 | 0.89 | 1.03 | 0.861 | 0.7 | 1.05 | 1.07 | 1.01 | 0.872 | 0.865
HCC-78 | 0.884 | 0.818 | 0.791 | 0.665 | 0.68 | 0.404 | 0.473 | 0.208 | 0.396 | 0.377 | 0.499 | 0.458 | 0.416 | 0.391 | 0.351 | 0.322 | 0.343 | 0.338 | 0.322 | 0.314
NCI-H1755 | 1.08 | 1.21 | 1.09 | 0.959 | 0.943 | 0.641 | 0.562 | 0.575 | 0.624 | 0.54 | 0.884 | 0.782 | 0.891 | 0.666 | 0.791 | 1.04 | 1.01 | 0.928 | 0.865 | 0.832
NCI-H23 | 0.876 | 0.993 | 0.99 | 0.877 | 0.943 | 0.378 | 0.535 | 0.406 | 0.362 | 0.359 | 0.921 | 0.66 | 0.665 | 0.69 | 0.592 | 0.547 | 0.473 | 0.627 | 0.471 | 0.345
COR-L23 | 1.57 | 1.31 | 1.04 | 1 | 0.814 | 0.363 | 0.152 | 0.171 | 0.173 | 0.149 | 0.474 | 0.457 | 0.484 | 0.366 | 0.332 | 0.678 | 0.642 | 0.552 | 0.643 | 0.441
NCI-H838 | 1.55 | 1.52 | 1.31 | 1.06 | 1.13 | 0.277 | 0.286 | 0.269 | 0.276 | 0.269 | 0.737 | 0.769 | 0.788 | 0.672 | 0.705 | 0.932 | 1.09 | 0.906 | 0.858 | 0.764
